The text below walks through data of patent publication US11844772B2, “Method for treating rhabdoid tumors” (Lantern Pharma Inc., priority 2020, dated 2023).

Broadly, the IC50 is the concentration that inhibits the measured activity by half. A high value points to a need for much substance.

Experiment [1] concerns CHLA-02 (group 1) ATRT cell line. Put plainly: LP-184 sensitivity in ATRT cell line CHLA-02. In kind it is cell-based. The text has this:
(§1) Patients receive several types of treatment, which may include surgery, chemotherapy and radiation, but the overall 2-year survival rate remains less than 15% for children aged younger than 3 years at diagnosis. ATRTs commonly have mutations in or loss of the gene SMARCB1. Increased LP-184 sensitivity correlates with decreased expression of SMARCB1. The panel of 3 ATRT cell lines, 2 of the 3 lines show evidence of high sensitivity to HydroxyUreaMethyl Acylfulvene (having a negative optical activity) or LP-184 with IC50s for those 2 being lower than 200 nM.

The next experiment deals with CHLA06 xenograft tumors. Put plainly: in vivo xenograft tumor study, animal model of atypical teratoid rhabdoid tumor (ATRT). On the set-up: species or system NOD SCID mice. On the procedure:
LP-184 or HydroxyUreaMethyl Acylfulvene with a negative optical activity was tested for anti-tumor efficacy in an in vivo xenograft tumor study by Lantern Pharma. […] LP-184 was administered after (treatment model) the onset of disease. CHLA06 cells were implanted subcutaneously in non-obese diabetic severe combined immunodeficiency (NOD SCID) mice, formed xenograft tumors, and were thereafter treated either with vehicle control of 95% saline/5% ethanol (N=10) or 2 mg/kg or 4 mg/kg LP-184 (N=10) administered as intravenous injections.
LP-184 was delivered as 5 every other day doses over 2 cycles with a break of 5 days between cycles (IV/QaD×5on/5off×2), i.e., dosing occurred on days 0, 2, 4, 6. 8, 14, 16, 18, 20, and 22 of the study. LP-184 treatment was started 4 weeks after implantation when the tumors reached a group average volume of 150 mm^3. […] 2 out of 10 mice in the 4 mg/kg LP-184 treatment group were virtually tumor-free at study termination (tumor volume 0.5 mm^3). […] The results are highlighted in FIG. 2, wherein the Y axis denotes tumor volume in mm^3 and X axis denotes days post, treatment initiation. Since tumor growth was established before administration of the anti-cancer study drug, the defining feature of the treatment tumor model, anti-tumor treatment effects may thus be appropriately attributed to LP-184.
In CHLA06 xenograft models, tumors from the vehicle control treated mice appear vividly large (length range 1.5-2 cm) whereas tumors from 4 mg/kg LP-184 treated animals shrunk remarkably (length less than 0.5 cm) or have fully regressed.

For experiment [2], the system named is CHLA-06 (group 2A/B) ATRT cell line. Put plainly: LP-184 sensitivity in ATRT cell line CHLA-06. Format: cell-based.
Description: as §1

Experiment [3] deals with CHLA-05 (group 1) ATRT cell line. Kind of experiment: LP-184 sensitivity in ATRT cell line CHLA-05. In kind it is cell-based.
Description: as §1

Experiment [4] has as its system panel of 3 ATRT cell lines. Put plainly: LP-184 sensitivity in a panel of 3 ATRT cell lines. In kind it is cell-based. The note with it: 2 of the 3 ATRT cell lines (high sensitivity).
Description: as §1

`CC1=C(CN(O)C(N)=O)C2=C(C)C3(CC3)[C@@](C)(O)C(=O)C2=C1` [LP-184, HydroxyUreaMethyl Acylfulvene]: the IC50 in experiment [1] was 1770 nM; in experiment [2], 37.4 nM; in experiment [3] it was 162 nM; in experiment [4] it was < 200 nM. Further, the “mice virtually tumor-free at study termination” value in the experiment on CHLA06 xenograft tumors (4 mg/kg IV group, N=10) is given as 2 out of 10. Further, in the experiment with CHLA06 xenograft tumors (4 mg/kg IV group, study termination), the “tumor volume of virtually tumor-free mice” value came to 0.5 mm^3. In addition, in the experiment on CHLA06 xenograft tumors (4 mg/kg LP-184 treated animals, vehicle 1.5-2 cm), the “tumor length (photographs at end of experiment)” value was “less than 0.5 cm”. The “tumor regression, on average” value with CHLA06 xenograft tumors (LP-184 treated groups (2 or 4 mg/kg IV), end of study day 42) is given as “near complete tumor regression”. Moreover, the “tumor regrowth after final dose” value in the experiment with CHLA06 xenograft tumors (day 40, final dose on day 22) is “no tumor regrowth”. Further, the Tumor growth inhibition in the experiment with CHLA06 xenograft tumors (relative to control, IV QoDx5 on/5 off x2, 2 mg/kg or 4 mg/kg) turned out to be 112%.
